Peptide text beside a SMILES is read from it.
System: interleukin-6 (IL-6) in THP-1 leukemia cells
Assay: In vitro screen for anti-inflammatory effects: angiocidin-induced IL-6 in THP-1 cells (ELISA)
Type: cell-based, human
Settings: 100 μg/ml for 24 hours, then angiocidin 10 μg/ml for 24 hours
Protocol: A typical in vitro screen for anti-inflammatory effects was carried out as follows.
THP-1 leukemia cells (monocytic leukemic human cell line) were cultured and either untreated or treated with a bioactive dipeptide derivative (100 μg/ml) of the present invention for 24 hours. The untreated or treated leukemia cells were then treated with angiocidin (10 μg/ml) for 24 hours to induce interleukin-6 (IL-6) which was an indicator of the inflammation. The induced IL-6 was measured quantitatively by ELISA (enzyme-linked immunosorbent assay). […] Therefore, the bioactive dipeptide derivatives of the present invention, such as N—Ac-L-Val-L-Ala-NH2, have the potential use as nonsteroidal anti-inflammatory substances.

Structure (SMILES): CC(=O)N[C@H](C(=O)N[C@@H](C)C(N)=O)C(C)C [N-Ac-L-Val-L-Ala-NH2] (Ac-Val-Ala-NH2)
- inhibition of the production of IL-6: approximately 70%
